Experimental data as given in PubChem BioAssay AID652164 (Sanford-Burnham Center for Chemical Genomics, 2013).
Active and inactive are the calls of the source.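 How the source made its calls: active means IC50 at or below 20 µM; inactive means the rest.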

target: Fatty acid synthase (Homo sapiens) (UniProt P49327); assay: FAS thioesterase domain inhibitors, SAR follow-up, biochemical, endpoint fluorescence intensity, powder samples (AID 652164); conditions: recombinant FAS-TE, OMFH substrate fluorescence
Sequence (P49327 whole entry, looked up, the tested form may be a part): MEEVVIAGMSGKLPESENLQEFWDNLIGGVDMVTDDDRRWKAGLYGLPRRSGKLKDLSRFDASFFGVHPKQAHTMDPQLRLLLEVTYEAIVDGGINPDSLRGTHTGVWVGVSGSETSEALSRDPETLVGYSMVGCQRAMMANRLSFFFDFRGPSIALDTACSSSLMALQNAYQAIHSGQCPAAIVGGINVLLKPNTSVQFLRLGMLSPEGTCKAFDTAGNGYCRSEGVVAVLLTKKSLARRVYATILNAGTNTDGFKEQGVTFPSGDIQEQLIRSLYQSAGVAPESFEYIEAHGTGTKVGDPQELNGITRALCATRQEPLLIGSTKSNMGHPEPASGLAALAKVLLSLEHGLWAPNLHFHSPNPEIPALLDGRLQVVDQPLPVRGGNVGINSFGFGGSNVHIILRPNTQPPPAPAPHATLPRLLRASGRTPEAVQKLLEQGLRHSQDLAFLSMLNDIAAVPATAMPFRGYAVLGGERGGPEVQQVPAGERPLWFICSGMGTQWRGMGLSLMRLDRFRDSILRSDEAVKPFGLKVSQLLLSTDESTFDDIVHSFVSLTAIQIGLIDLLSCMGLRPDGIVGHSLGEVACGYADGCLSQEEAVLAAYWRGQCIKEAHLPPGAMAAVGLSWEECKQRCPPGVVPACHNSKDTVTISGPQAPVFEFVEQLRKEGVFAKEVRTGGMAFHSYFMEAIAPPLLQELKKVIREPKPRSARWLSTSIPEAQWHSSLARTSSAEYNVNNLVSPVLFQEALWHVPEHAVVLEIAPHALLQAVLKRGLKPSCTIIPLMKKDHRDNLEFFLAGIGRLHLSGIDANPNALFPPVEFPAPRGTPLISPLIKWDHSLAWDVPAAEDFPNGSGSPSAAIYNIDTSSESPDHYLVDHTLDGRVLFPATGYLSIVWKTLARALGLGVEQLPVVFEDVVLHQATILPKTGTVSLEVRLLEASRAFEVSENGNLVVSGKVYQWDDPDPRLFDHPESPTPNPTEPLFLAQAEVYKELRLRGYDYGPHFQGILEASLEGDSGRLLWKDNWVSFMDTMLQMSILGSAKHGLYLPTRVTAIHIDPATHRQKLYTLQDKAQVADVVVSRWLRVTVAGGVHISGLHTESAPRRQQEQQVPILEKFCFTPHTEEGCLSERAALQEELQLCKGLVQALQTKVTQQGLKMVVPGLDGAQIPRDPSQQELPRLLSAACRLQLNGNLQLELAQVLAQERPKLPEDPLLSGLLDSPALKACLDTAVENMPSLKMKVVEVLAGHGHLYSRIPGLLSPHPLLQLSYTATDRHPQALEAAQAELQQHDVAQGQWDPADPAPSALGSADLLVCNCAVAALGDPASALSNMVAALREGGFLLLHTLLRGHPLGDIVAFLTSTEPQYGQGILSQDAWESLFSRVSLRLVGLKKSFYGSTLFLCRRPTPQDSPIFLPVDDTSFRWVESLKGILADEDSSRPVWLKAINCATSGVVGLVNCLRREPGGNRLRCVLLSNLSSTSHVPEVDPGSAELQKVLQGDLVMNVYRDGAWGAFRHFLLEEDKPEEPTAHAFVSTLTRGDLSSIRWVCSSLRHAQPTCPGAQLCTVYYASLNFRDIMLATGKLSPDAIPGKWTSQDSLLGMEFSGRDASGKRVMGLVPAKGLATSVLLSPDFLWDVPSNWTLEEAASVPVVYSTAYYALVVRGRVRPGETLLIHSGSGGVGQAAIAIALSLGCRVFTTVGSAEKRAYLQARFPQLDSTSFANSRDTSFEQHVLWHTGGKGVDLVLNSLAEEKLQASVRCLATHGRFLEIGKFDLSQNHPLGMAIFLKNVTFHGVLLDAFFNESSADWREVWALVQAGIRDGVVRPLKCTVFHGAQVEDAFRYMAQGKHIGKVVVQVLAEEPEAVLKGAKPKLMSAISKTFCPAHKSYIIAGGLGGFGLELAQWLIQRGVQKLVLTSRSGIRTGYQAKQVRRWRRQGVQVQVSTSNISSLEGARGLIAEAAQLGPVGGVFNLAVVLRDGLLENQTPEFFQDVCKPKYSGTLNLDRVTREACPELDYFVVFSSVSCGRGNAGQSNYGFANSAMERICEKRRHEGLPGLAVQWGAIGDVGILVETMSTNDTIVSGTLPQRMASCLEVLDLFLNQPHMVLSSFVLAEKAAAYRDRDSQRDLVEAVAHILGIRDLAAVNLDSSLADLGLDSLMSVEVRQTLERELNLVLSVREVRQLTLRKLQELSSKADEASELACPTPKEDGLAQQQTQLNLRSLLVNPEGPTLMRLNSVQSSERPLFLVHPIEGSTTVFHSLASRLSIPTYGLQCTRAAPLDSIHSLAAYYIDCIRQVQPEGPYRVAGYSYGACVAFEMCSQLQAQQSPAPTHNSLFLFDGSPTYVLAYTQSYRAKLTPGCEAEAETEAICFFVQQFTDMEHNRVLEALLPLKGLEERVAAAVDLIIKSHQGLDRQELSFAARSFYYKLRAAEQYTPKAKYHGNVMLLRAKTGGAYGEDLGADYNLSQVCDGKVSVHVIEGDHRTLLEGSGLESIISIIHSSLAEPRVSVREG

| Structure (SMILES) | IC50 |
| --- | --- |
| CC(C)(C)OC(=O)Nc1nc(-c2ccc(S(=O)(=O)N3CCOCC3)cc2)cs1 | inactive |
| CCN(CC)S(=O)(=O)c1ccc(-c2csc(NC(=O)C3CC3)n2)cc1 | 2320 nM |
| CC(C)CC(=O)Nc1nc(-c2ccc(S(=O)(=O)N3CCOCC3)cc2)cs1 | 11600 nM |
| CCN(CC)S(=O)(=O)c1ccc(-c2csc(NC(=O)C3CCCCC3)n2)cc1 | 2930 nM |
| O=C(Nc1nc(-c2ccc(S(=O)(=O)N3CCCC3)cc2)cs1)C1CCCC1 | 729 nM |
| CCC(=O)Nc1nc(-c2ccc(S(=O)(=O)N3CCOCC3)cc2)cs1 | 4520 nM |
| O=C(Nc1nc(-c2ccc(S(=O)(=O)N3CCCC3)cc2)cs1)C1CC1 | 558 nM |
| O=C(Nc1nc(-c2ccc(S(=O)(=O)N3CCOCC3)cc2)cs1)C1CC1 | 5210 nM |
| CC(C)C(=O)Nc1nc(-c2ccc(S(=O)(=O)N(C)C)cc2)cs1 | 575 nM |
| CC1CCN(S(=O)(=O)c2ccc(-c3csc(NC(=O)C(C)C)n3)cc2)CC1 | 658 nM |
| CCCCC(=O)Nc1nc(-c2ccc(S(=O)(=O)N3CCOCC3)cc2)cs1 | 552 nM |
| CCC(=O)Nc1nc(-c2ccc(S(=O)(=O)N(CC)CC)cc2)cs1 | 4250 nM |
| CCC(=O)Nc1nc(-c2ccc(S(=O)(=O)N3CCCC3)cc2)cs1 | 648 nM |
| CCCCC(=O)Nc1nc(-c2ccc(S(=O)(=O)N3CCSCC3)cc2)cs1 | 713 nM |
| O=C(Nc1nc(-c2ccc(S(=O)(=O)N3CCOCC3)cc2)cs1)C1CCC1 | 3590 nM |

The remaining lines, values ahead:

| IC50 | Structure (SMILES) |
| --- | --- |
| 501 nM | CCCCC(=O)Nc1nc(-c2ccc(S(=O)(=O)N3CCC(C)CC3)cc2)cs1 |
| 311 nM | CCC(C)C(=O)Nc1nc(-c2ccc(S(=O)(=O)N3CCOCC3)cc2)cs1 (centres undefined) |
| 281 nM | CCN(CC)S(=O)(=O)c1ccc(-c2csc(NC(=O)C(C)C)n2)cc1 |
| 300 nM | CCC(C)C(=O)Nc1nc(-c2ccc(S(=O)(=O)N(CC)CC)cc2)cs1 (centres undefined) |
| 201 nM | CCCCC(=O)Nc1nc(-c2ccc(S(=O)(=O)N3CCCC3)cc2)cs1 |
| 398 nM | O=C(Nc1nc(-c2ccc(S(=O)(=O)N3CCCC3)cc2)cs1)C1CCC1 |
| 277 nM | CC(C)C(=O)Nc1nc(-c2ccc(S(=O)(=O)N3CCCC3)cc2)cs1 |
| 334 nM | CCC(CC)C(=O)Nc1nc(-c2ccc(S(=O)(=O)N3CCOCC3)cc2)cs1 |
| 172 nM | CCCCC(=O)Nc1nc(-c2ccc(S(=O)(=O)N(CC)CC)cc2)cs1 |
